Results as given in publication PMC12736255, “Reinvestigating Pyrrol-2-One-Based Compounds: From Antimicrobial Agents to Promising Antitumor Candidates” (Pharmaceuticals, 2025).
Marks after values point to notes of the source that are not given here.

How the values were obtained:
Test in all cases: NCI-60 single-dose screen
EKVX = type: cell-based, human; conditions: 10^–5 M; for inhibition at 10 µM: Homo sapiens, read-out: GI (%)
Source text: (§1) In the next step, all synthesized compounds were electronically submitted and accepted for testing to the National Cancer Institute (NCI) platform, for the single dose (10^−5 M) screening against a panel of 60 human tumor cell lines, representing leukemia, melanoma, and cancers of the lung, colon, central nervous system, ovary, kidney, prostate, and breast. The results are summarized in Table 2, with the best values highlighted in red (Figures S1–S14).

NCI-H226 = type: cell-based, human; conditions: NCI-H226, 10^–5 M; for inhibition at 10 µM: Homo sapiens, read-out: GI (%)
Source text: as §1

786-0 = type: cell-based; conditions: Homo sapiens; 786-0, 10^–5 M; read-out: GI (%)
Source text: as §1

A498 = type: cell-based; conditions: Homo sapiens; A498, 10^–5 M; read-out: GI (%)
Source text: as §1

CAKI-1 = type: cell-based; conditions: Homo sapiens; CAKI-1, 10^–5 M; read-out: GI (%)
Source text: as §1

COLO205 = type: cell-based; conditions: Homo sapiens, COLO 205; COLO205, 10^–5 M; read-out: GI (%)
Source text: as §1

HCT-116 = type: cell-based; conditions: Homo sapiens; HCT-116, 10^–5 M; read-out: GI (%)
Source text: as §1

HCT-15 = type: cell-based; conditions: Homo sapiens; HCT-15, 10^–5 M; read-out: GI (%)
Source text: as §1

HL-60(TB) = type: cell-based; conditions: Homo sapiens, 10^–5 M, read-out: GI (%)
Source text: as §1

HOP-92 = type: cell-based; conditions: Homo sapiens; HOP-92, 10^–5 M; read-out: GI (%)
Source text: as §1

HS 578T = type: cell-based; conditions: Homo sapiens, 10^–5 M, read-out: GI (%)
Source text: as §1

HT-29 = type: cell-based; conditions: Homo sapiens; HT-29, 10^–5 M; read-out: GI (%)
Source text: as §1

KM12 = type: cell-based; conditions: Homo sapiens; KM12, 10^–5 M; read-out: GI (%)
Source text: as §1

LOX IMVI = type: cell-based; conditions: Homo sapiens, 10^–5 M, read-out: GI (%)
Source text: as §1

M14 = type: cell-based; conditions: Homo sapiens; M14, 10^–5 M; read-out: GI (%)
Source text: as §1

MCF7 = type: cell-based; conditions: Homo sapiens; MCF7, 10^–5 M; read-out: GI (%)
Source text: as §1

MDA-MB-231/ATCC = type: cell-based; conditions: Homo sapiens, 10^–5 M, read-out: GI (%)
Source text: as §1

MDA-MB-435 = type: cell-based; conditions: Homo sapiens; MDA-MB-435, 10^–5 M; read-out: GI (%)
Source text: as §1

MOLT-4 = type: cell-based; conditions: Homo sapiens; MOLT-4, 10^–5 M; read-out: GI (%)
Source text: as §1

NCI-H23 = type: cell-based; conditions: Homo sapiens; NCI-H23, 10^–5 M; read-out: GI (%)
Source text: as §1

NCI-H322M = type: cell-based; conditions: Homo sapiens, 10^–5 M, read-out: GI (%)
Source text: as §1

NCI-H522 = type: cell-based; conditions: Homo sapiens; NCI-H522, 10^–5 M; read-out: GI (%)
Source text: as §1

NCI/ADR-RES = type: cell-based; conditions: Homo sapiens, 10^–5 M, read-out: GI (%)
Source text: as §1

OVCAR-3 = type: cell-based; conditions: Homo sapiens; OVCAR-3, 10^–5 M; read-out: GI (%)
Source text: as §1

OVCAR-8 = type: cell-based; conditions: Homo sapiens; OVCAR-8, 10^–5 M; read-out: GI (%)
Source text: as §1

RPMI-8226 = type: cell-based; conditions: Homo sapiens; RPMI-8226, 10^–5 M; read-out: GI (%)
Source text: as §1

SF-268 = type: cell-based; conditions: Homo sapiens; SF-268, 10^–5 M; read-out: GI (%)
Source text: as §1

SF-539 = type: cell-based; conditions: Homo sapiens; SF-539, 10^–5 M; read-out: GI (%)
Source text: as §1

SK-MEL-2 = type: cell-based; conditions: Homo sapiens; SK-MEL-2, 10^–5 M; read-out: GI (%)
Source text: as §1

SK-MEL-5 = type: cell-based; conditions: Homo sapiens; SK-MEL-5, 10^–5 M; read-out: GI (%)
Source text: as §1

SK-OV-3 = type: cell-based; conditions: Homo sapiens; SK-OV-3, 10^–5 M; read-out: GI (%)
Source text: as §1

SN12C = type: cell-based; conditions: Homo sapiens, 10^–5 M, read-out: GI (%)
Source text: as §1

SNB-19 = type: cell-based; conditions: Homo sapiens; SNB-19, 10^–5 M; read-out: GI (%)
Source text: as §1

SNB-75 = type: cell-based; conditions: Homo sapiens; SNB-75, 10^–5 M; read-out: GI (%)
Source text: as §1

SW-620 = type: cell-based; conditions: Homo sapiens; SW-620, 10^–5 M; read-out: GI (%)
Source text: as §1

T-47D = type: cell-based; conditions: Homo sapiens, T47D, 10^–5 M, read-out: GI (%)
Source text: as §1

UACC-257 = type: cell-based; conditions: Homo sapiens; UACC-257, 10^–5 M; read-out: GI (%)
Source text: as §1

In the case of `O=C1C(Nc2ccc(I)cc2)=CC(c2ccc(C(F)(F)F)cc2)N1c1ccc(I)cc1` (centres unmarked) [3e], the “GI (%)” value (EKVX) is reported as 100 ^d %, the inhibition at 10 µM (EKVX) is reported as 100% and the inhibition at 10 µM (NCI-H226) is reported as 100%. The “GI (%)” value (NCI-H226) was 100 ^e %, the inhibition at 10 µM (786-0) was 76% and the inhibition at 10 µM (A498) was 100%. For the same compound, the inhibition at 10 µM (CAKI-1) was 91%, the inhibition at 10 µM (COLO205) was 61% and the inhibition at 10 µM (HCT-116) was 58%. The inhibition at 10 µM (HCT-15) was 12%, the inhibition at 10 µM (HL-60(TB)) was 51% and the inhibition at 10 µM (HOP-92) was 62%. The inhibition at 10 µM (HS 578T) was 100%, the inhibition at 10 µM (HT-29) was 32% and the inhibition at 10 µM (KM12) was 35%. The inhibition at 10 µM (LOX IMVI) was 7%, the inhibition at 10 µM (M14) was 64% and the inhibition at 10 µM (MCF7) was 44%. It also gave an inhibition at 10 µM (MDA-MB-231/ATCC) of 62%, an inhibition at 10 µM (MDA-MB-435) of 0% and an inhibition at 10 µM (MOLT-4) of 75%. For the same compound, the inhibition at 10 µM (NCI-H23) was 11%, the inhibition at 10 µM (NCI-H322M) was 97% and the inhibition at 10 µM (NCI-H522) was 53%. For the same compound, the inhibition at 10 µM (NCI/ADR-RES) was 35%, the inhibition at 10 µM (OVCAR-3) was 72% and the inhibition at 10 µM (OVCAR-8) was 43%. The inhibition at 10 µM (RPMI-8226) was 60%, the inhibition at 10 µM (SF-268) was 100% and the inhibition at 10 µM (SF-539) was 37%. For the same compound, the inhibition at 10 µM (SK-MEL-2) was 100%, the inhibition at 10 µM (SK-MEL-5) was 0% and the inhibition at 10 µM (SK-OV-3) was 50%. It also gave an inhibition at 10 µM (SN12C) of 60%, an inhibition at 10 µM (SNB-19) of 71% and an inhibition at 10 µM (SNB-75) of 100%. For the same compound, the inhibition at 10 µM (SW-620) was 47%, the inhibition at 10 µM (T-47D) was 100% and the inhibition at 10 µM (UACC-257) was 100%.
In the case of `O=C1C(Nc2ccc(I)cc2)=CC(c2cc(C(F)(F)F)cc(C(F)(F)F)c2)N1c1ccc(I)cc1` (centres unmarked) [3f], the inhibition at 10 µM (EKVX) is reported as 35%, the inhibition at 10 µM (NCI-H226) is reported as 81% and the inhibition at 10 µM (786-0) is reported as 29%. It also gave an inhibition at 10 µM (A498) of 90%, an inhibition at 10 µM (CAKI-1) of 32% and an inhibition at 10 µM (COLO205) of 59%. For the same compound, the inhibition at 10 µM (HCT-116) was 43%, the inhibition at 10 µM (HCT-15) was 17% and the inhibition at 10 µM (HL-60(TB)) was 59%. It also gave an inhibition at 10 µM (HOP-92) of 19%, an inhibition at 10 µM (HS 578T) of 100% and an inhibition at 10 µM (HT-29) of 5%. It also gave an inhibition at 10 µM (KM12) of 13%, an inhibition at 10 µM (LOX IMVI) of 17% and an inhibition at 10 µM (M14) of 0%. For the same compound, the inhibition at 10 µM (MCF7) was 46%, the inhibition at 10 µM (MDA-MB-231/ATCC) was 42% and the inhibition at 10 µM (MDA-MB-435) was 0%. It also gave an inhibition at 10 µM (MOLT-4) of 89%, an inhibition at 10 µM (NCI-H23) of 12% and an inhibition at 10 µM (NCI-H322M) of 10%. It also gave an inhibition at 10 µM (NCI-H522) of 34%, an inhibition at 10 µM (NCI/ADR-RES) of 7% and an inhibition at 10 µM (OVCAR-3) of 35%. The inhibition at 10 µM (OVCAR-8) was 26%, the inhibition at 10 µM (RPMI-8226) was 43% and the inhibition at 10 µM (SF-268) was 21%. It also gave an inhibition at 10 µM (SF-539) of 17%, an inhibition at 10 µM (SK-MEL-2) of 35% and an inhibition at 10 µM (SK-MEL-5) of 12%. The inhibition at 10 µM (SK-OV-3) was 10%, the inhibition at 10 µM (SN12C) was 61% and the inhibition at 10 µM (SNB-19) was 19%. The inhibition at 10 µM (SNB-75) was 100%, the inhibition at 10 µM (SW-620) was 20% and the inhibition at 10 µM (T-47D) was 100%. The inhibition at 10 µM (UACC-257) was 0%.
With `O=C1C(Nc2ccc(I)cc2)=CC(c2ccc(O)c(O)c2)N1c1ccc(I)cc1` (centres unmarked) [3h] the inhibition at 10 µM (EKVX) was 22%, the inhibition at 10 µM (NCI-H226) was 35% and the inhibition at 10 µM (786-0) was 52%. It also gave an inhibition at 10 µM (A498) of 61%, an inhibition at 10 µM (CAKI-1) of 44% and an inhibition at 10 µM (COLO205) of 98%. For the same compound, the inhibition at 10 µM (HCT-116) was 96%, the inhibition at 10 µM (HCT-15) was 84% and the inhibition at 10 µM (HL-60(TB)) was 100%. It also gave an inhibition at 10 µM (HOP-92) of 66%, an inhibition at 10 µM (HS 578T) of 63% and an inhibition at 10 µM (HT-29) of 96%. For the same compound, the inhibition at 10 µM (KM12) was 100%, the inhibition at 10 µM (LOX IMVI) was 57% and the inhibition at 10 µM (M14) was 99%. The inhibition at 10 µM (MCF7) was 91%, the inhibition at 10 µM (MDA-MB-231/ATCC) was 42% and the inhibition at 10 µM (MDA-MB-435) was 73%. It also gave an inhibition at 10 µM (MOLT-4) of 100%, an inhibition at 10 µM (NCI-H23) of 73% and an inhibition at 10 µM (NCI-H322M) of 34%. The inhibition at 10 µM (NCI-H522) was 82%, the inhibition at 10 µM (NCI/ADR-RES) was 35% and the inhibition at 10 µM (OVCAR-3) was 96%. It also gave an inhibition at 10 µM (OVCAR-8) of 37%, an inhibition at 10 µM (RPMI-8226) of 100% and an inhibition at 10 µM (SF-268) of 82%. It also gave an inhibition at 10 µM (SF-539) of 72%, an inhibition at 10 µM (SK-MEL-2) of 100% and an inhibition at 10 µM (SK-MEL-5) of 94%. The inhibition at 10 µM (SK-OV-3) was 64%, the inhibition at 10 µM (SN12C) was 100% and the inhibition at 10 µM (SNB-19) was 69%. For the same compound, the inhibition at 10 µM (SNB-75) was 86%, the inhibition at 10 µM (SW-620) was 100% and the inhibition at 10 µM (T-47D) was 65%. It also gave an inhibition at 10 µM (UACC-257) of 68%.
